This passage reports TGI and GI50 results from PubChem BioAssay (NCI).

Common to all, as to experiment: NCI-60 cell line screen, 48 h
For experiment [1], the system named is BT-549 breast.
Experiment [2] has as its system CAKI-1 renal.
For experiment [3], the system named is DU-145 prostate.
In experiment [4] the test system is HOP-62 NSCLC.
Experiment [5] relates to HS 578T breast.
The subject of experiment [6] is KM12 colon.
In experiment [7] the test system is MCF7 breast.
Experiment [8] relates to MOLT-4 leukemia.
In experiment [9] the test system is OVCAR-4 ovarian.
Experiment [10] deals with UACC-62 melanoma.

Molecules are shown by their SMILES.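 Five concentrations, 48 hours, 96-well plates. Abbreviation: GI50, concentration required for 50% inhibition of growth. Definition used: TGI = concentration required for complete inhibition of growth.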

For `Nc1ccc(-c2nc3ccccc3s2)cc1C(F)(F)F`, the TGI in [1] was found to be 26.4 µM; in experiment [2], 28.7 µM; in experiment [3] it was 29.2 µM; in [4] it was 30 µM; in experiment [5], 43.5 µM; in experiment [6], 31.2 µM. In addition, the TGI in [7] turned out to be 19.4 µM; in experiment [8] it was 52.4 µM; in experiment [9] it was 32.9 µM; in experiment [10], 30.6 µM. Also, the GI50 in [9] is 15.9 µM.
`N=C(N)c1ccc(-c2ccc(-c3cccs3)s2)cc1`: the GI50 in [1] is 3.77 µM; in [2], 1.89 µM; in experiment [3], 1.68 µM; in experiment [5] it was 2.99 µM; in [9], 1.71 µM; in experiment [10], 1.68 µM. In addition, the TGI in experiment [1] was 14.5 µM; in [2], 4.23 µM; in experiment [3], 3.14 µM; in experiment [5], 9.62 µM; in [9], 4.24 µM; in experiment [10] it was 3.18 µM.
Take `N#CC(N=Nc1ccc(Cl)cc1)c1nc2ccccc2o1` (centres undefined): the TGI in experiment [1] is 95.6 µM; in experiment [2], above 100 µM; in [3] it was above 100 µM; in experiment [4], above 100 µM; in experiment [5], above 100 µM; in experiment [6], above 100 µM. The TGI in experiment [7], in experiment [8], in experiment [9] and in experiment [10] was above 100 µM throughout.
For `O=C(NCCCN(CCCCN(CCCNC(=O)C(F)(F)F)Cc1ccc2ccccc2c1)Cc1ccc2ccccc2c1)C(F)(F)F`, the TGI is above 100 µM in [1]; above 100 µM in experiment [3]; above 100 µM in experiment [4]; above 100 µM in experiment [6]; 4.54 µM in experiment [7]; above 100 µM in [8]. The TGI in [9] is above 100 µM; in experiment [10], 5.41 µM.
Consider `CC1=C2C(=C[C@H]3[C@]4(C)CCCC(C)(C)[C@H]4CC[C@]34O[C@H]24)OC1=O`, for which the TGI in experiment [1], in experiment [3], in [4], in experiment [6], in [7] and in experiment [8] was above 100 µM each time. Also, the TGI in experiment [9] and in experiment [10] was above 100 µM each time.
With `COC(=O)CN1c2nc(C#N)c(C#N)nc2N(CC(=O)OC)c2nc(C#N)c(C#N)nc21`, the TGI in experiment [1] stood at 11.3 µM; in experiment [2], 1.55 µM; in experiment [3] it was 18.3 µM; in experiment [4], 34.3 µM; in [5], 39.6 µM; in experiment [6] it was 27.8 µM. Also, the TGI in experiment [7] was 18.4 µM; in experiment [8], above 22 µM; in experiment [9] it was 17.3 µM; in experiment [10], 42.4 µM.
With `NC(CC1=CS(=O)(=O)c2ccc(Cl)cc21)C(=O)O` (centres undefined), the TGI in experiment [1], in experiment [2], in experiment [3], in experiment [4], in experiment [5] and in [6] was above 100 µM in each case. The TGI in [7], in experiment [8], in experiment [9] and in experiment [10] was above 100 µM throughout.
For the molecule `CCOC(=O)c1c(-c2ccccc2)c(-c2ccccc2)cn1C`, the TGI in [1], in experiment [3], in experiment [5], in experiment [6], in experiment [8] and in experiment [9] was above 10 µM each time. Moreover, the TGI in [10] is above 10 µM.
As for `CCCCn1cnc2c(c(CC#N)nn2-c2ccccc2)c1=N`, the TGI in experiment [1], in experiment [2], in [3], in experiment [4], in [5] and in experiment [6] was above 100 µM throughout. Further, the TGI in experiment [7] is above 100 µM; in experiment [8] it was above 100 µM; in experiment [9], above 100 µM; in experiment [10], 53.1 µM.
For the molecule `Cc1ccc(CC[P+](=O)CCc2ccc(C)nc2)cn1`, the TGI in experiment [2], in experiment [3], in [4], in experiment [5], in [6] and in experiment [7] was above 100 µM in each case. For the same molecule, the TGI in [8], in experiment [9] and in experiment [10] was above 100 µM in each case.
Regarding `C[C@@H](Cl)[C@H]1CCCN(Cc2ccc(Br)cc2)C1`, the TGI in experiment [2], in [3], in experiment [4], in [5], in experiment [6] and in experiment [7] was above 12.5 µM in each case. Also, the TGI in experiment [8], in [9] and in experiment [10] was above 12.5 µM in each case.
Consider `O=c1ccn(C2OC(CO)C(P(=O)(O)O)C2O)c(=O)[nH]1` (centres undefined), for which the TGI in experiment [1], in experiment [2], in experiment [3], in [4], in experiment [5] and in [6] was above 100 µM throughout. Besides, the TGI in experiment [7], in experiment [8], in experiment [9] and in experiment [10] was above 100 µM each time.
Consider `C/C1=C\CC[C@@]2(C)O[C@@H]2C[C@@H](C2(C)CO2)CC/C(C)=C/CC1` (some centres undefined), for which the TGI in experiment [1] was found to be 42.8 µM; in experiment [2], 39.9 µM; in experiment [3], 48.8 µM; in [4], 97.3 µM; in [5], 46.3 µM; in experiment [6] it was 34.3 µM. In addition, the TGI in experiment [7] is 37.1 µM; in experiment [8] it was above 100 µM; in experiment [9], above 100 µM; in [10] it was 40.4 µM.
